Three molecules from ChEMBL document CHEMBL1201862, “PubChem BioAssay data set” (2004) can be followed below.

Holding throughout (assay): inhibition of tumour cell growth, NCI panel, 48 h
The test system of assay [1] is SK-MEL-28.
Assay [2] concerns LOX IMVI.
Assay [3] relates to 786-0.
In assay [4] the test system is NCI-H23.
Assay [5] concerns HCT-15.
Assay [6] deals with NCI-H460.
In assay [7] the test system is MOLT-4.
Assay [8] relates to Hs-578T.
The subject of assay [9] is UACC-257.
For assay [10], the system named is OVCAR-5.
Assay [11] has as its system HT-29.
In assay [12] the test system is U-251.
In assay [13] the test system is A498.
Assay [14] concerns HOP-62.
The subject of assay [15] is NCI/ADR-RES.
Assay [16] concerns SK-MEL-2.
Assay [17] concerns RPMI-8226.
In assay [18] the test system is NCI-H522.
Assay [19] has as its system SNB-75.
The subject of assay [20] is K562.

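Compound exposure: 48 hours, 5 concentrations, 96-well plates. GI50: concentration for 50% inhibition of growth.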 The source made the active and inactive calls. Rule as the data show it: active = GI50 up to about 1.1 µM and inactive = higher.

For the molecule `O=C(O)c1ccccc1/C=C1/Cc2ccc3c(c2C1=O)CCC3`, the GI50 in assay [1] is 42.8 µM (inactive); in assay [2], 19.1 µM (inactive); in assay [3], 49 µM (inactive); in assay [4], 35.6 µM (inactive); in assay [5] it was 33.6 µM; in assay [6], 45.4 µM (inactive). Moreover, the GI50 is 33.8 µM (inactive) in assay [7]; 32.2 µM (inactive) in [8]; 41.8 µM (inactive) in assay [9]; 20.9 µM (inactive) in assay [10]; 44.7 µM (inactive) in assay [11]; 27.6 µM (inactive) in assay [12]. Further, the GI50 is 38.3 µM (inactive) in assay [13]; 68.9 µM (inactive) in assay [14]; 50.2 µM (inactive) in assay [15]; 12.7 µM (inactive) in assay [16]; 22.4 µM (inactive) in assay [17]; 42.4 µM (inactive) in [18]. For the same molecule, the GI50 was 39.4 µM (inactive) in assay [19] and 33.3 µM (inactive) in [20].

As for `O=C(c1ccc(Cl)cc1)N1N=C(c2ccc(Cl)cc2)CC1(O)c1cc(F)c(Cl)cc1Cl` (stereo not given), the GI50 is 44.3 µM (inactive) in assay [1]; 15.2 µM (inactive) in assay [2]; 18.9 µM (inactive) in assay [3]; 12.2 µM (inactive) in [4]; 15.5 µM in assay [5]; 21.7 µM (inactive) in assay [6]. Besides, the GI50 is 9.25 µM (inactive) in [7]; 39 µM (inactive) in assay [8]; 25.7 µM (inactive) in assay [9]; 28.2 µM (inactive) in [10]; 8.95 µM (inactive) in assay [11]; 15.5 µM (inactive) in [12]. Besides, the GI50 in assay [13] is 13.6 µM (inactive); in assay [14] it was 32.1 µM (inactive); in assay [15] it was 18.4 µM (inactive); in assay [16], 17 µM (inactive); in assay [17], 8.22 µM (inactive); in [18], 12.9 µM (inactive). The values for the GI50 in assay [19] and in assay [20] were 10 µM (inactive) and 7.24 µM (inactive), respectively.

With `CCOC(=O)CN1C(=O)c2cc([N+](=O)[O-])cc3cc([N+](=O)[O-])cc(c23)C1=O`, the GI50 in assay [1] is 49.3 µM (inactive); in assay [2], 4.1 µM (inactive); in [3] it was 48.8 µM (inactive); in assay [4], 99.3 µM (inactive); in assay [5], 17.3 µM; in [6] it was 73.6 µM (inactive). The GI50 in [7] is 3.56 µM (inactive); in assay [8] it was > 100 µM (inactive); in [9] it was 73.8 µM (inactive); in assay [10], > 100 µM (inactive); in [11], 34.7 µM (inactive); in assay [12], > 88.5 µM (inactive). The GI50 was > 100 µM (inactive) in [13]; > 100 µM (inactive) in assay [14]; > 80.4 µM (inactive) in [15]; 22.5 µM (inactive) in assay [16]; 19.6 µM (inactive) in assay [17]; 4.21 µM (inactive) in assay [18]. The results for the GI50 in assay [19] and in [20] were 84.3 µM (inactive) and 5.13 µM (inactive), respectively.
